# Laboratory results: patent US20230241093A1, “TARGETING ADISPSIN FOR NONALCOHOLIC STEATOHEPATITIS (NASH)- INDUCED LIVER FIBROSIS” (The Trustees of Columbia University in the City of New York, priority 2020, published 2023)
# System: hepatic stellate cells (HSC)
# Assay: Gene expression in hepatic stellate cells after treatment with recombinant C3a
# Format: cell-based
# Details: recombinant C3a vs control (vehicle alone), FIG. 3B
# Procedure: FIG. 3. Adipsin/C3a effects on liver fibrosis. A. Complement C3 cleavage products as assessed by Western blot in conditioned medium from hepatocytes with or without Adipsin expression. B. Gene expression in hepatic stellate cells (HSC) after treatment with vehicle or recombinant C3a.
# The effects of Adipsin/C3a on liver fibrosis was analyzed.
substance,measurement,value
"recombinant C3a: recombinant complement C3 cleavage product C3a, used to treat hepatic stellate cells",Acta2 gene expression in hepatic stellate cells,dose dependent increase
same,Collal gene expression in hepatic stellate cells,dose dependent increase
